# pIC50: −log10 of the molar value.
# Target: FAP (Homo sapiens (Human), UniProt Q12884)
# Test: FAP protease inhibition assay (FAM-labeled substrate peptide, microfluidic electrophoresis)
# Assay type: biochemical
# Conditions: enzyme 0.5 nM, substrate peptide 1 uM, 15 minutes pre-incubation, three hours for human FAP
# Experimental: Protease reactions were assembled in 384 well plates (Greiner) in a total volume of 20 uL as described below.
# Recombinant proteins were pre-diluted in assay buffer comprising of 100 mM HEPES, pH 7.5, 0.1% BSA, 0.01% Triton X-100, 1 mM DTT, and dispensed into 384 well plate (10 uL per well). Test compounds were serially pre-diluted in DMSO and added to the assay wells by acoustic dispensing (Labcyte Echo 550). Control samples (0%-inhibition in the absence of inhibitor, DMSO only) and 100%-inhibition (in the absence of enzyme) were assembled in replicates of four and used to calculate the %-inhibition in the presence of compounds. Concentration of DMSO was equalized to 1% in all samples.
# Compounds were pre-incubated with enzymes for 15 minutes. Human FAP was obtained from Enzo, catalogue number BML-SE409-0010. […] Final concentration of enzymes were 0.5 nM. Final concentration of substrate peptides was 1 uM.
# The reactions were allowed to proceed at room temperature. Incubation time was three hours for human FAP, 0.5 hours for mouse FAP.
# Terminated plates were analyzed using a microfluidic electrophoresis instrument (Caliper LabChip® 3000, Caliper Life Sciences/Perkin Elmer). A change in relative intensity of the peptide substrate and cleaved product was the parameter measured. Activity in each test sample was determined as the product to sum ratio (PSR):P/(S+P), where P is the peak height of the product, and S is the peak height of the substrate. Percent inhibition (Pinh) was determined using the following equation: Pinh=(PSR0% inh−PSRcompound)/(PSR0% inh−PSR100% inh)*100, in which: PSRcompound is the product/sum ratio in the presence of compound, PSR0% inh is the product/sum ratio in the absence of compound and the PSR100% inh is the product/sum ratio in the absence of the enzyme.
# FAP, sequence (Q12884 whole entry): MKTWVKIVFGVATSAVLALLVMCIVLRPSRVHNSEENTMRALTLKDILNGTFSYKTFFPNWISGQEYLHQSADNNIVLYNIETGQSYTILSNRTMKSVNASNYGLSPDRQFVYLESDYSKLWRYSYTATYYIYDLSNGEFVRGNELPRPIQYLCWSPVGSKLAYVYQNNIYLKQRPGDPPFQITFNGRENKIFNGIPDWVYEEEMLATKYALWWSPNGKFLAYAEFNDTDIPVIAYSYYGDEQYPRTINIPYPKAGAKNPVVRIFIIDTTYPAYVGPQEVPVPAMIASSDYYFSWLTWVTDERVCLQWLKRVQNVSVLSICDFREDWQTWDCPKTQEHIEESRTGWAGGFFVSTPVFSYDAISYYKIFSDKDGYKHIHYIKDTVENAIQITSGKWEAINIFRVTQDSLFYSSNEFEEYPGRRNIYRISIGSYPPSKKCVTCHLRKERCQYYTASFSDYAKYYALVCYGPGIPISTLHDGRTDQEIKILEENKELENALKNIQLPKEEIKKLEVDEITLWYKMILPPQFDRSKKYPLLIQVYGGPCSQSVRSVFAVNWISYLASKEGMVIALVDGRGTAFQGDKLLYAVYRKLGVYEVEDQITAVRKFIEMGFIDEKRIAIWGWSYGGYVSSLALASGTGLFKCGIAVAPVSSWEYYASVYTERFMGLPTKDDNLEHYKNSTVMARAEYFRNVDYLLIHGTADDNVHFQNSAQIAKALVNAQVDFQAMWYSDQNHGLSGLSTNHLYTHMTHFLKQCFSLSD
row,Compound,pIC50
1,"2,2′,2″-(10-(8-(1-((4-((2-((R)-2-boronopyrrolidin-1-yl)-2-oxoethyl)carbamoyl)quinolin-7-yl)oxy)-2-oxo-6,9,12-trioxa-3-azapentadecanamido)-39-carboxy-48-(4-isobutylphenyl)-2,9,37,45-tetraoxo-13,16,19,22,25,28,31,34-octaoxa-3,10,38,44-tetraazaoctatetracontyl)-1,4,7,10-tetraazacyclo-dodecane-1,4,7-triyl)triacetic acid [RTX-1357R]",> 10.00
2,CCCC(=O)NCCCC[C@H](NC(=O)[C@H](CCCCNC(=S)Nc1ccc(CC2CN(CC(=O)O)CCN(CC(=O)O)CCN2CC(=O)O)cc1)NC(=O)CCOCCOCCOCCNC(=O)COc1ccc2c(C(=O)NCC(=O)N3CCC[C@H]3C#N)ccnc2c1)C(=O)O (some centres unmarked) [RTX-1317S],9.30 to 10.00
3,CCCCCC(=O)NCCCC[C@H](NC(=O)[C@H](CCCCNC(=S)Nc1ccc(CC2CN(CC(=O)O)CCN(CC(=O)O)CCN2CC(=O)O)cc1)NC(=O)CCOCCOCCOCCNC(=O)COc1ccc2c(C(=O)NCC(=O)N3CCC[C@H]3C#N)ccnc2c1)C(=O)O (some centres unmarked) [RTX-1318S],> 10.00
4,CC(=O)NCCCC[C@H](NC(=O)[C@H](CCCCNC(=S)Nc1ccc(CC2CN(CC(=O)O)CCN(CC(=O)O)CCN2CC(=O)O)cc1)NC(=O)CCOCCOCCOCCNC(=O)COc1ccc2c(C(=O)NCC(=O)N3CCC[C@H]3B(O)O)ccnc2c1)C(=O)O (some centres unmarked) [RTX-1319R],9.30 to 10.00
5,"CC(=O)NCCCC[C@H](NC(=O)[C@H](CCCCNC(=O)c1ccc(F)c(C#N)c1)NC(=O)CCOCCOCCOCCNC(=O)COc1ccc2c(C(=O)NCC(=O)N3CCC[C@H]3C#N)ccnc2c1)C(=O)O [RTX-1324S, (S)-2-[(S)-2-(3-{2-[2-(2-{2-[4-({2-[(S)-2-Cyano-1-pyrrolidinyl]-2-oxoethylamino}carbonyl)-7-quinolyloxy]acetylamino}ethoxy)ethoxy]ethoxy}propionylamino)-6-(3-cyano-4-fluorobenzoylamino)hexanoylamino]-6-acetylaminohexanoic Acid]",> 10.00
6,CC(=O)NCCCC[C@H](NC(=O)[C@H](CCCCNC(=O)c1ccc(F)c(C(F)(F)F)c1)NC(=O)CCOCCOCCOCCNC(=O)COc1ccc2c(C(=O)NCC(=O)N3CCC[C@H]3C#N)ccnc2c1)C(=O)O [RTX-1325S],8.30 to 9.30
7,"COc1ccc2c(C(=O)NCC(=O)N3CCC[C@H]3C#N)ccnc2c1 [RTX-1326S, 7-Methoxy-quinoline-4-carboxylic Acid [2-((S)-2-cyano-pyrrolidin-1-yl)-2-oxo-ethyl]-amide]",8.30 to 9.30
8,CC(=O)NCCCC[C@H](NC(=O)[C@H](CCCCNC(=O)CN1CCN(CC(=O)O)CCN(CC(=O)O)CC1)NC(=O)CCOCCOCCOCCNC(=O)COc1ccc2c(C(=O)NCC(=O)N3CCC[C@H]3C#N)ccnc2c1)C(=O)O [RTX-1339S],9.30 to 10.00
9,CCCC(=O)NCCCC[C@H](NC(=O)[C@H](CCCCNC(=O)CN1CCN(CC(=O)O)CCN(CC(=O)O)CC1)NC(=O)CCOCCOCCOCCNC(=O)COc1ccc2c(C(=O)NCC(=O)N3CCC[C@H]3C#N)ccnc2c1)C(=O)O [RTX-1340S],9.30 to 10.00
10,CCCCCCCC(=O)NCCCC[C@H](NC(=O)[C@H](CCCCNC(=O)CN1CCN(CC(=O)O)CCN(CC(=O)O)CCN(CC(=O)O)CC1)NC(=O)CCOCCOCCOCCNC(=O)COc1ccc2c(C(=O)NCC(=O)N3CCC[C@H]3C#N)ccnc2c1)C(=O)O [RTX-1350S],> 10.00
11,CC(C)Cc1ccc(CCCC(=O)NCCCC[C@H](NC(=O)[C@H](CCCCNC(=O)CN2CCN(CC(=O)O)CCN(CC(=O)O)CCN(CC(=O)O)CC2)NC(=O)CCOCCOCCOCCNC(=O)COc2ccc3c(C(=O)NCC(=O)N4CCC[C@H]4C#N)ccnc3c2)C(=O)O)cc1 [RTX-1352S],> 10.00
12,CC(=O)NCCCC[C@H](NC(=O)[C@H](CCCCNC(=O)CN1CCN(CC(=O)O)CCN(CC(=O)O)CCN(CC(=O)O)CC1)NC(=O)CCOCCOCCOCCNC(=O)COc1ccc2c(C(=O)NCC(=O)N3CCC[C@H]3C#N)ccnc2c1)C(=O)O [RTX-1353S],9.30 to 10.00
13,CC(C)Cc1ccc(CC(=O)NCCCC[C@H](NC(=O)[C@H](CCCCNC(=O)CN2CCN(CC(=O)O)CCN(CC(=O)O)CCN(CC(=O)O)CC2)NC(=O)CCOCCOCCOCCNC(=O)COc2ccc3c(C(=O)NCC(=O)N4CCC[C@H]4C#N)ccnc3c2)C(=O)O)cc1 [RTX-1354S],> 10.00
14,CCCCCCCC(=O)NCCCC[C@H](NC(=O)[C@H](CCCCNC(=O)CN1CCN(CC(=O)O)CCN(CC(=O)O)CCN(CC(=O)O)CC1)NC(=O)CCOCCOCCOCCNC(=O)COc1ccc2c(C(=O)NCC(=O)N3CCC[C@H]3B(O)O)ccnc2c1)C(=O)O [RTX-1355R],9.30 to 10.00
15,CC(C)Cc1ccc(CCCC(=O)NCCCC[C@H](NC(=O)[C@H](CCCCNC(=O)CN2CCN(CC(=O)O)CCN(CC(=O)O)CCN(CC(=O)O)CC2)NC(=O)CCOCCOCCOCCNC(=O)COc2ccc3c(C(=O)NCC(=O)N4CCC[C@H]4B(O)O)ccnc3c2)C(=O)O)cc1 [RTX-1356R],9.30 to 10.00
16,"CC(C)Cc1ccc(CC(=O)NCCCC[C@H](NC(=O)[C@H](CCCCNC(=O)CN2CCN(CC(=O)O)CCN(CC(=O)O)CCN(CC(=O)O)CC2)NC(=O)CCOCCOCCOCCNC(=O)COc2ccc3c(C(=O)NCC(=O)N4CCC[C@H]4B(O)O)ccnc3c2)C(=O)O)cc1 [RTX-1359R, 2-[2-(3-{2-[2-(2-{2-[4-({2-[(R)-2-(1,2-dihydroxaboro)-1-pyrrolidinyl]-2-oxoethylamino}-carbonyl)-7-quinolyloxy]acetylamino}ethoxy)ethoxy]ethoxy}propionylamino)-6-{2-[4,7,10-tris(carb-oxymethyl)-1,4,7,10-tetraaza-1-cyclododecyl]acetylamino}hexanoylamino]-6-[2-(p-isobutylphenyl)-acetylamino]hexanoic Acid]",> 10.00
17,CCCCCC(=O)NCCCC[C@H](NC(=O)[C@H](CCCCNC(=O)CN1CCN(CC(=O)O)CCN(CC(=O)O)CCN(CC(=O)O)CC1)NC(=O)CCOCCOCCOCCNC(=O)COc1ccc2c(C(=O)NCC(=O)N3CCC[C@H]3C#N)ccnc2c1)C(=O)O [RTX-1360S],> 10.00
18,CCCCCC(=O)NCCCC[C@H](NC(=O)[C@H](CCCCNC(=O)CN1CCN(CC(=O)O)CCN(CC(=O)O)CCN(CC(=O)O)CC1)NC(=O)CCOCCOCCOCCNC(=O)COc1ccc2c(C(=O)NCC(=O)N3CCC[C@H]3B(O)O)ccnc2c1)C(=O)O [RTX-1361R],> 10.00
19,"CCCCCC(=O)NCCCC[C@H](NC(=O)[C@H](CCCCNC(=O)CN1CCN(CC(=O)O)CCN(CC(=O)O)CC1)NC(=O)CCOCCOCCOCCNC(=O)COc1ccc2c(C(=O)NCC(=O)N3CCC[C@H]3C#N)ccnc2c1)C(=O)O [RTX-1363S, 2,2′-(7-((S)-17-(((S)-1-carboxy-5-hexanamidopentyl)carbamoyl)-1-((4-((2-((S)-2-cyanopyrrolidin-1-yl)-2-oxoethyl)carbamoyl)quinolin-7-yl)oxy)-2,15,23-trioxo-6,9,12-trioxa-3,16,22-triazatetracosan-24-yl)-1,4,7-triazonane-1,4-diyl)diacetic Acid]",> 10.00
20,CCCCCC(=O)NCCCC[C@H](NC(=O)[C@H](CCCCNC(=O)CN1CCN2CCN(CC1)CC(=O)[O][Cu][O]C(=O)C2)NC(=O)CCOCCOCCOCCNC(=O)COc1ccc2c(C(=O)NCC(=O)N3CCC[C@H]3C#N)ccnc2c1)C(=O)O [RTX-1363S-Cu],> 10.00

# Source: US20260034252A1, “FIBROBLAST ACTIVATION PROTEIN-TARGETED COMPOSITIONS AND METHODS OF USE THEREOF” (Ratio Therapeutics, Inc., priority 2022, published 2026)
